Measurements reported in ChEMBL document CHEMBL1201862, “PubChem BioAssay data set” (2004).
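Cultured in 96-well plates, cells were exposed to test compound for 48 hours across five concentrations. GI50: concentration for 50% inhibition of growth.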 Active and inactive are the calls of the source. No stated cut-off is given here; in the data, active = GI50 up to about 1.1 µM and inactive = higher.

Tests used:
Experiment in all cases: growth of human tumour cells (NCI), 48 h
786-0 = test system: 786-0
UACC-62 = test system: UACC-62
TK-10 = test system: TK-10
CCRF-CEM = test system: CCRF-CEM
HCT-15 = test system: HCT-15
OVCAR-8 = test system: OVCAR-8
HL-60 = test system: HL-60
SF-295 = test system: SF-295
LOX IMVI = test system: LOX IMVI
SF-268 = test system: SF-268
M14 = test system: M14
SK-MEL-5 = test system: SK-MEL-5
A549 = test system: A549
SK-OV-3 = test system: SK-OV-3
RXF 393 = test system: RXF 393
K562 = test system: K562
NCI-H460 = test system: NCI-H460
UACC-257 = test system: UACC-257

Compound	GI50 (786-0)	GI50 (UACC-62)	GI50 (TK-10)	GI50 (CCRF-CEM)	GI50 (HCT-15) [µM]	GI50 (OVCAR-8)	GI50 (HL-60)	GI50 (SF-295)	GI50 (LOX IMVI)	GI50 (SF-268)	GI50 (M14)	GI50 (SK-MEL-5)	GI50 (A549)	GI50 (SK-OV-3)	GI50 (RXF 393)	GI50 (K562)	GI50 (NCI-H460)	GI50 (UACC-257)
CCOC(=O)COc1ccc(OCC(=O)OCC)c2c1C(=O)CCCC2=O	> 100 µM (inactive)	> 100 µM (inactive)	> 100 µM (inactive)	> 100 µM (inactive)	> 100	> 100 µM (inactive)	> 100 µM (inactive)	> 100 µM (inactive)	> 100 µM (inactive)	> 100 µM (inactive)	> 100 µM (inactive)	0.26 µM (active)	> 100 µM (inactive)	> 100 µM (inactive)	> 100 µM (inactive)	> 100 µM (inactive)	> 100 µM (inactive)	> 100 µM (inactive)
CC(=O)C1=NN(c2ccccc2)C2(S1)SC(c1ccccc1)(c1ccccc1)c1ccccc12 (stereo not drawn)	34.5 µM (inactive)	17.9 µM (inactive)	63.7 µM (inactive)	49.3 µM (inactive)	> 100	34.9 µM (inactive)	19.9 µM (inactive)	26.9 µM (inactive)	61.5 µM (inactive)	40.1 µM (inactive)	44.8 µM (inactive)	–	36.7 µM (inactive)	30.8 µM (inactive)	13.2 µM (inactive)	32.4 µM (inactive)	32.3 µM (inactive)	34.4 µM (inactive)
CC(=O)NNc1nc(C)c(C(=O)/C=C/c2ccc(/C=C/C(=O)c3sc(NNC(C)=O)nc3C)cc2)s1	> 100 µM (inactive)	> 100 µM (inactive)	> 100 µM (inactive)	> 100 µM (inactive)	> 100	> 100 µM (inactive)	> 100 µM (inactive)	> 100 µM (inactive)	> 100 µM (inactive)	> 100 µM (inactive)	43.2 µM (inactive)	–	> 100 µM (inactive)	> 100 µM (inactive)	> 100 µM (inactive)	> 100 µM (inactive)	> 100 µM (inactive)	> 100 µM (inactive)
CC(C)C(=O)NC(=S)Nc1ccc([N+](=O)[O-])cc1C#N	> 100 µM (inactive)	> 100 µM (inactive)	> 100 µM (inactive)	> 100 µM (inactive)	> 100	> 100 µM (inactive)	> 100 µM (inactive)	> 100 µM (inactive)	> 100 µM (inactive)	> 100 µM (inactive)	> 100 µM (inactive)	> 100 µM (inactive)	> 100 µM (inactive)	> 100 µM (inactive)	> 100 µM (inactive)	> 100 µM (inactive)	> 100 µM (inactive)	> 100 µM (inactive)
CC(=O)c1ccccc1NC(=O)C(=O)C(C(=O)c1ccccc1-c1ccccc1)C1OC(=O)c2ccccc21 (stereo not drawn)	18.6 µM (inactive)	20.7 µM (inactive)	14.9 µM (inactive)	25.1 µM (inactive)	19.7	19.1 µM (inactive)	23.9 µM (inactive)	22.2 µM (inactive)	18.7 µM (inactive)	–	18.2 µM (inactive)	19.1 µM (inactive)	25.5 µM (inactive)	31.8 µM (inactive)	11.5 µM (inactive)	25.3 µM (inactive)	19.1 µM (inactive)	15.7 µM (inactive)
Brc1ccc(C[P+]2(c3ccccc3)CCCCC2)cc1.[O-][Cl+3]([O-])([O-])[O-]	> 100 µM (inactive)	41.1 µM (inactive)	99.5 µM (inactive)	82 µM (inactive)	> 100	95.1 µM (inactive)	20.4 µM (inactive)	> 100 µM (inactive)	63.2 µM (inactive)	–	65.9 µM (inactive)	17.5 µM (inactive)	> 100 µM (inactive)	> 100 µM (inactive)	> 100 µM (inactive)	77.4 µM (inactive)	> 100 µM (inactive)	23.9 µM (inactive)
CCCCCCCCCCCC(=O)OCCOCCOCCOCCOCCOCc1ccccc1	> 100 µM (inactive)	> 100 µM (inactive)	> 100 µM (inactive)	> 100 µM (inactive)	> 100	> 100 µM (inactive)	34.4 µM (inactive)	> 100 µM (inactive)	> 100 µM (inactive)	> 100 µM (inactive)	> 100 µM (inactive)	> 100 µM (inactive)	> 100 µM (inactive)	> 100 µM (inactive)	> 100 µM (inactive)	> 100 µM (inactive)	> 100 µM (inactive)	> 100 µM (inactive)
C#C[C@@H](CCCC)OC(=O)N[C@H](C)c1ccccc1	59.6 µM (inactive)	4.98 µM (inactive)	29.2 µM (inactive)	25.7 µM (inactive)	–	13.7 µM (inactive)	15.3 µM (inactive)	77.1 µM (inactive)	33.2 µM (inactive)	2.17 µM (inactive)	11.5 µM (inactive)	20.6 µM (inactive)	6.82 µM (inactive)	> 100 µM (inactive)	2.36 µM (inactive)	31.9 µM (inactive)	56.6 µM (inactive)	44.8 µM (inactive)
Clc1ccc(OCc2nnc3n2N=C(c2ccccc2)CS3)c(Cl)c1	9.48 µM (inactive)	6.58 µM (inactive)	7.98 µM (inactive)	4.03 µM (inactive)	> 100	7.33 µM (inactive)	3.7 µM (inactive)	4.35 µM (inactive)	1.64 µM (inactive)	8.73 µM (inactive)	> 10 µM (inactive)	8.28 µM (inactive)	6.5 µM (inactive)	> 100 µM (inactive)	26.4 µM (inactive)	4.25 µM (inactive)	5 µM (inactive)	56.2 µM (inactive)
N#CCCN(c1ccc(/C=N/c2ccc(C(=O)O)cc2)cc1)S(=O)(=O)c1ccccc1	> 100 µM (inactive)	> 100 µM (inactive)	> 100 µM (inactive)	> 100 µM (inactive)	> 100	> 100 µM (inactive)	41.4 µM (inactive)	> 100 µM (inactive)	> 100 µM (inactive)	> 100 µM (inactive)	> 100 µM (inactive)	> 100 µM (inactive)	> 100 µM (inactive)	> 100 µM (inactive)	> 100 µM (inactive)	> 100 µM (inactive)	> 100 µM (inactive)	> 100 µM (inactive)
Cc1c(Cl)ccc2c1NC(=O)C2(O)C(C(=O)c1ccccc1)c1ccccc1 (stereo not drawn)	32.4 µM (inactive)	19.5 µM (inactive)	52 µM (inactive)	14.7 µM (inactive)	45.7	69.7 µM (inactive)	13.2 µM (inactive)	36.5 µM (inactive)	44.2 µM (inactive)	62.7 µM (inactive)	> 100 µM (inactive)	23.3 µM (inactive)	98.2 µM (inactive)	> 100 µM (inactive)	27.5 µM (inactive)	31.1 µM (inactive)	64.9 µM (inactive)	28.7 µM (inactive)
O=C1/C(=C/c2ccc(Cl)cc2)COc2ccc(Br)cc21	> 100 µM (inactive)	–	> 100 µM (inactive)	61.1 µM (inactive)	–	> 100 µM (inactive)	> 100 µM (inactive)	> 100 µM (inactive)	> 100 µM (inactive)	> 100 µM (inactive)	–	> 100 µM (inactive)	> 100 µM (inactive)	> 100 µM (inactive)	50.5 µM (inactive)	> 100 µM (inactive)	> 100 µM (inactive)	> 100 µM (inactive)
